Test systems include SNB-19 CNS; M14 melanoma; SW-620 colon; KM12 colon; K-562 leukemia; NCI-H23 lung; SNB-75 CNS; OVCAR-4 ovarian; DU-145 prostate; TK-10 renal.
Common to all, as to experiment: NCI tumour cell line growth inhibition, 48 h

Molecules are shown by their SMILES.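 1) Cells in 96-well plates. 2) Compound, 48 h, 5 concentrations. 3) Linear interpolation between surrounding doses. 4) Unreached endpoint = highest concentration. Abbreviation: GI50, concentration required for 50% inhibition of growth. The concentration for full growth arrest is given as TGI.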

Turning to `S=c1sc2ccccc2n1CN1CCN(Cc2ccccc2)CC1`, the TGI with SNB-19 CNS, in the test on M14 melanoma, with SW-620 colon, in the test on KM12 colon, with K-562 leukemia and with NCI-H23 lung was above 100 µM each time. Besides, the TGI in the test on SNB-75 CNS, in the test with OVCAR-4 ovarian and with DU-145 prostate was above 100 µM throughout.
Take `N#CC1=C(N)NC(=S)NC1c1ccc(-c2ccc(-c3nc4ccccc4s3)cc2)o1` (configuration not stated): the GI50 is above 50 µM in the test with SNB-19 CNS; 20.8 µM in the test with M14 melanoma; 37500 nM with SW-620 colon; 17000 nM in the test on KM12 colon; 9.98 µM in the test with K-562 leukemia; 33.2 µM in the test on NCI-H23 lung. Moreover, the GI50 with DU-145 prostate was 42.3 µM; with TK-10 renal, 37.9 µM. Also, the TGI in the test on SNB-19 CNS was above 50 µM; in the test on M14 melanoma, above 50 µM; in the test with SW-620 colon, above 50 µM; with KM12 colon it was above 50 µM; in the test on K-562 leukemia, 22 µM; in the test on NCI-H23 lung, above 50 µM. Besides, the TGI in the test with DU-145 prostate and in the test on TK-10 renal was above 50 µM each time.
As for `O=C(/C=C/c1ccccc1O)CC(=O)/C=C/c1ccccc1O`, the TGI with SNB-19 CNS is 22.9 µM; with M14 melanoma it was above 31.6 µM; in the test with SW-620 colon, 24 µM; in the test with K-562 leukemia it was above 31.6 µM; in the test with NCI-H23 lung, 16.9 µM; with SNB-75 CNS it was above 78.7 µM. The values for the TGI with OVCAR-4 ovarian, in the test with DU-145 prostate and in the test with TK-10 renal were above 88.1 µM, above 31.6 µM and above 100 µM, respectively.
As to `CN1CCN(c2nc(NCCNc3ccnc4cc(Cl)ccc34)c3ccccc3n2)CC1`, the GI50 in the test with SNB-19 CNS is 3.34 µM; in the test on M14 melanoma, 1.83 µM; with SW-620 colon, 391 nM; in the test on KM12 colon it was 2430 nM; with K-562 leukemia, 0.721 µM; in the test on NCI-H23 lung it was 3.64 µM. The GI50 in the test on SNB-75 CNS is 1840 nM; in the test on OVCAR-4 ovarian, 2.15 µM; in the test on TK-10 renal it was 2.72 µM. For the same molecule, the TGI in the test on SNB-19 CNS was 15.2 µM; in the test on M14 melanoma it was 3.59 µM; with SW-620 colon, 13.3 µM; with KM12 colon it was 12.1 µM; with K-562 leukemia, 3.82 µM; in the test on NCI-H23 lung, 15.2 µM. Moreover, the values for the TGI with SNB-75 CNS, with OVCAR-4 ovarian and with TK-10 renal were 4.96 µM, 6.26 µM and 7.93 µM, respectively.
Consider `COC(=O)c1ccc2c(c1)[n+](=O)c(C(C)=O)c(C(F)(F)F)n2[O-]`, for which the GI50 with SNB-19 CNS is 3.12 µM; in the test with M14 melanoma it was 1.75 µM; in the test with SW-620 colon it was 1950 nM; in the test on KM12 colon it was 1760 nM; with K-562 leukemia it was 2.31 µM; in the test on NCI-H23 lung it was 1.81 µM. For the same molecule, the GI50 in the test on SNB-75 CNS is 1400 nM; in the test with DU-145 prostate it was 1.83 µM; in the test on TK-10 renal it was 2.77 µM. Also, the TGI was found to be 9.12 µM in the test with SNB-19 CNS; 3.2 µM in the test on M14 melanoma; 3.83 µM with SW-620 colon; 3.19 µM in the test on KM12 colon; 7.7 µM with K-562 leukemia; 3.38 µM in the test with NCI-H23 lung. The TGI in the test on SNB-75 CNS worked out at 2.71 µM; with DU-145 prostate it was 3.23 µM; in the test on TK-10 renal, 6.05 µM.
As to `COc1ccc(-c2cc(-c3ccco3)c(C#N)c(=O)n2C2OC(OC(=O)c3ccccc3)C(OC(=O)c3ccccc3)C2OC(=O)c2ccccc2)cc1` (configuration not stated), the TGI with SNB-19 CNS, in the test on M14 melanoma, with SW-620 colon, in the test with KM12 colon, in the test on K-562 leukemia and with NCI-H23 lung was above 100 µM in each case. For the same molecule, the figures for the TGI in the test with SNB-75 CNS, with OVCAR-4 ovarian and with TK-10 renal were above 100 µM, above 100 µM and 54.7 µM, respectively.
For the molecule `Oc1ccc(Br)cc1CN1CCN(Cc2ccc(Cl)cc2)CC1`, the GI50 in the test with SNB-19 CNS is 37.8 µM; in the test on SW-620 colon it was 22200 nM; in the test with KM12 colon it was 26300 nM; with K-562 leukemia it was 10.2 µM; with NCI-H23 lung, 16.5 µM; in the test with SNB-75 CNS it was 27600 nM. Besides, the GI50 in the test on OVCAR-4 ovarian is 11.8 µM; in the test on DU-145 prostate, 46.3 µM; with TK-10 renal it was 24.8 µM. In addition, the TGI with SNB-19 CNS is above 100 µM; in the test on SW-620 colon, 92.5 µM; with KM12 colon, above 100 µM; in the test on K-562 leukemia, above 100 µM; in the test with NCI-H23 lung it was above 100 µM; with SNB-75 CNS, above 100 µM. Also, the TGI in the test with OVCAR-4 ovarian was 86.3 µM; in the test with DU-145 prostate, above 100 µM; in the test on TK-10 renal, above 100 µM.
For the molecule `CC1=NN(C(=O)CC(=O)Nc2ccccc2)C(=O)C1N=Nc1ccc(S(N)(=O)=O)cc1` (configuration not stated), the TGI in the test on SNB-19 CNS, with M14 melanoma, in the test on SW-620 colon, in the test on KM12 colon, in the test on K-562 leukemia and in the test on NCI-H23 lung was above 100 µM throughout. In addition, the TGI in the test on SNB-75 CNS, in the test with OVCAR-4 ovarian and in the test with TK-10 renal was above 100 µM in each case.
Turning to `CC(=N\O)/C(C)=N/O.CC(=N\O)/C(C)=N/O.[Pd]`, the GI50 in the test with SNB-19 CNS is above 10 µM; in the test with M14 melanoma, 3.04 µM; with SW-620 colon, 3440 nM; in the test with KM12 colon it was 2790 nM; in the test with K-562 leukemia it was above 10 µM; in the test on NCI-H23 lung, 2.6 µM. Moreover, the GI50 in the test with OVCAR-4 ovarian was 4.72 µM; in the test with DU-145 prostate, 6.48 µM; in the test with TK-10 renal, 4.57 µM. Also, the TGI with SNB-19 CNS is above 10 µM; with M14 melanoma it was 8.55 µM; in the test with SW-620 colon, above 10 µM; in the test on KM12 colon, 8.01 µM; in the test on K-562 leukemia it was above 10 µM; in the test on NCI-H23 lung, 6.38 µM. Moreover, the TGI in the test on OVCAR-4 ovarian, in the test on DU-145 prostate and in the test on TK-10 renal was above 10 µM in each case.
As for `Nc1ccc(Cl)cc1.Nc1ccc(Cl)cc1.Nc1ccc(Cl)cc1.O=C([O-])C(=O)[O-].O=C([O-])C(=O)[O-].[H+].[Ru+5]`, the GI50 is 31.4 µM in the test on SNB-19 CNS; above 100 µM in the test with M14 melanoma; 187 nM in the test with SW-620 colon; 124 nM with KM12 colon; below 0.0169 µM in the test on K-562 leukemia; above 19.8 µM with NCI-H23 lung. Moreover, the GI50 in the test with SNB-75 CNS is above 78600 nM; in the test on OVCAR-4 ovarian, above 100 µM; with TK-10 renal, 3.56 µM. Also, the TGI in the test on SNB-19 CNS is above 100 µM; in the test with M14 melanoma, above 100 µM; with SW-620 colon, above 100 µM; in the test on KM12 colon, 21.9 µM; in the test on K-562 leukemia, above 100 µM; in the test on NCI-H23 lung, above 100 µM. For the same molecule, the TGI in the test with SNB-75 CNS, with OVCAR-4 ovarian and in the test with TK-10 renal was above 100 µM throughout.

(Values after PubChem BioAssay (NCI).)
